Values joined by “and” are separate entries in the source; they are usually repeats but may differ in a detail not shown here. Identical values can stand only once.
Assay: Stability of active ingredient in volatile solvents, 20-28 hours at ambient (UPLC assay and impurities)
Conditions: for Assay (as % of nominal): vial replicates
Experimental: Note the incubation for the stability studies were all performed in a similar way: • All were put into 4 mL amber glass vials. • The Initial samples were not analysed as soon as sampled but instead were frozen at −20° C. until the point of analysing the incubated samples (e.g after 28 days at 25, 40 or 50° C.) to avoid degradation of the active ingredient.
Chemical stability was determined by assay (results in Table 8) and quantification of potential active ingredient related substances (shown in
Table 9). […] The objective was to establish whether any active ingredient-related substances might be increasing as a result of the ambient hold.

[1] = 0.1 M HCl, 24 hour, listed as active ingredient
[2] = 0.1 M HCl, Initial, listed as active ingredient
[3] = 5% SLS aq., 24 hour, listed as active ingredient
[4] = 5% SLS aq., Initial, listed as active ingredient

CCS(=O)(=O)Nc1ccc2c(c1)nc(C(C)(C)C)n2CC1CCC(F)(F)CC1 [Compound I, N-(2-(tert-butyl)-1-((4,4-difluorocyclohexyl)methyl)-1H-benzimidazol-5-yl)ethanesulfonamide]
Impurity peak area, RRT 0.38 (0.1 M HCl, 24 hour): 0.07 % of Total
Impurity peak area, RRT 0.61 (0.1 M HCl, 24 hour): <0.05 % of Total
Impurity peak area, RRT 0.83 (0.1 M HCl, 24 hour): 0.11 % of Total
Impurity peak area, RRT 0.85 (0.1 M HCl, 24 hour): 0.07 % of Total
Impurity peak area, RRT 0.92 (0.1 M HCl, 24 hour): 0.09 % of Total
Impurity peak area, RRT 0.62 [1]: <0.05 % of Total and 0.05 % of Total
Impurity peak area, RRT 0.84* [1]: 0.27 % of Total and 0.34 % of Total
Impurity peak area, RRT 0.86^$ (PDA spectra unrelated to the active ingredient) [1]: <0.05 % of Total and 0.05 % of Total
Impurity peak area, RRT 0.98* (first row) [1]: 0.24 % of Total and 0.22 % of Total
Impurity peak area, RRT 0.98* (second row) [1]: 0.12 % of Total and 0.13 % of Total
Impurity peak area, RRT 1.04* [1]: 0.05 % of Total and <0.05 % of Total
Impurity peak area, RRT 1.23* [1]: 0.16 % of Total and 0.15 % of Total
Impurity peak area, RRT 1.24* [1]: <0.05 % of Total and 0.05 % of Total
Impurity peak area, RRT 1.35* [1]: 0.07 % of Total and 0.06 % of Total
Impurity peak area, RRT 1.36* [1]: <0.05 % of Total and 0.05 % of Total
Impurity peak area, Total [1]: 1.00 % of Total and 1.44 % of Total
Impurity peak area, Total excluding artifact [1]: 1.00 % of Total and 1.16 % of Total
Assay (as % of nominal), Mean (0.1M HCl, 24 hours ambient): 106.7 % of nominal
Assay (as % of nominal) (0.1M HCl, 24 hours ambient, listed as active ingredient): 107.7 % of nominal and 105.4 % of nominal
Assay (as % of nominal), Mean (0.1 M HCl, Initial): 114.4 % of nominal
Impurity peak area, RRT 0.41 (0.1 M HCl, Initial): <0.05 % of Total
Impurity peak area, RRT 0.98* (first row) (0.1 M HCl, Initial): 0.22 % of Total
Impurity peak area, RRT 0.98* (second row) (0.1 M HCl, Initial): 0.12 % of Total
Impurity peak area, RRT 1.04* (0.1 M HCl, Initial): <0.05 % of Total
Impurity peak area, RRT 1.24* (0.1 M HCl, Initial): <0.05 % of Total
Impurity peak area, RRT 0.38 [2]: 0.10 % of Total and 0.08 % of Total
Impurity peak area, RRT 0.61 [2]: 0.13 % of Total and 0.08 % of Total
Impurity peak area, RRT 0.62 [2]: 0.15 % of Total and 0.09 % of Total
Impurity peak area, RRT 0.84* [2]: 0.31 % of Total and 0.26 % of Total
Impurity peak area, RRT 0.85 [2]: <0.05 % of Total and 0.08 % of Total
Impurity peak area, RRT 0.92 [2]: 0.18 % of Total and 0.14 % of Total
Impurity peak area, RRT 1.23* [2]: 0.22 % of Total and 0.23 % of Total
Impurity peak area, RRT 1.35* [2]: 0.05 % of Total and 0.06 % of Total
Impurity peak area, RRT 1.36* [2]: 0.05 % of Total and 0.06 % of Total
Impurity peak area, Total [2]: 2.00 % of Total and 1.47 % of Total
Impurity peak area, Total excluding artifact [2]: 1.15 % of Total and 1.17 % of Total
Assay (as % of nominal) (0.1M HCl, Initial, listed as active ingredient): 100.6 % of nominal and 127.9 % of nominal
Impurity peak area, RRT 0.41 (5% SLS aq., 24 hour): <0.05 % of Total
Impurity peak area, RRT 0.62 (5% SLS aq., 24 hour): 0.08 % of Total
Impurity peak area, RRT 0.85 (5% SLS aq., 24 hour): NBD
Impurity peak area, RRT 0.92 (5% SLS aq., 24 hour): 0.05 % of Total
Impurity peak area, RRT 0.98* (first row) (5% SLS aq., 24 hour): 0.24 % of Total
Impurity peak area, RRT 1.04* (5% SLS aq., 24 hour): 0.06 % of Total
Impurity peak area, RRT 1.24* (5% SLS aq., 24 hour): <0.05 % of Total
Impurity peak area, RRT 1.36* (5% SLS aq., 24 hour): <0.05 % of Total
Impurity peak area, RRT 0.38 [3]: 0.10 % of Total and 0.07 % of Total
Impurity peak area, RRT 0.61 [3]: 0.07 % of Total and 0.06 % of Total
Impurity peak area, RRT 0.83 [3]: 0.30 % of Total and 0.16 % of Total
Impurity peak area, RRT 0.84* [3]: 0.32 % of Total and 0.30 % of Total
Impurity peak area, RRT 0.86^$ (PDA spectra unrelated to the active ingredient) [3]: 0.05 % of Total and 0.07 % of Total
Impurity peak area, RRT 0.98* (second row) [3]: 0.13 % of Total and 0.12 % of Total
Impurity peak area, RRT 1.23* [3]: 0.06 % of Total and 0.07 % of Total
Impurity peak area, RRT 1.35* [3]: 0.07 % of Total and 0.06 % of Total
Impurity peak area, Total [3]: 1.53 % of Total and 1.34 % of Total
Impurity peak area, Total excluding artifact [3]: 0.93 % of Total and 0.90 % of Total
Assay (as % of nominal), Mean (5% SLS aq., 24 hours ambient): 100.8 % of nominal
Assay (as % of nominal) (5% SLS aq., 24 hours ambient, listed as active ingredient): 99.4 % of nominal and 102.3 % of nominal
Assay (as % of nominal), Mean (5% SLS aq., Initial): 103.3 % of nominal
Impurity peak area, RRT 0.84* (5% SLS aq., Initial): 0.32 % of Total
Impurity peak area, RRT 0.86^$ (PDA spectra unrelated to the active ingredient) (5% SLS aq., Initial): <0.05 % of Total
Impurity peak area, RRT 0.98* (first row) (5% SLS aq., Initial): 0.24 % of Total
Impurity peak area, RRT 0.98* (second row) (5% SLS aq., Initial): 0.12 % of Total
Impurity peak area, RRT 1.24* (5% SLS aq., Initial): <0.05 % of Total
Impurity peak area, RRT 1.36* (5% SLS aq., Initial): 0.05 % of Total
Impurity peak area, RRT 0.92 [4]: 0.05 % of Total and <0.05 % of Total
Impurity peak area, RRT 1.04* [4]: 0.05 % of Total and <0.05 % of Total
Impurity peak area, RRT 1.23* [4]: 0.06 % of Total and 0.07 % of Total
Impurity peak area, RRT 1.35* [4]: 0.07 % of Total and 0.08 % of Total
Impurity peak area, Total [4]: 0.96 % of Total and 0.88 % of Total
Impurity peak area, Total excluding artifact [4]: 0.96 % of Total and 0.88 % of Total
Assay (as % of nominal) [4]: 105.0 % of nominal and 101.7 % of nominal
Assay (as % of nominal), Mean (Ethanol Absolute, 24 hours ambient): 99.0 % of nominal
Assay (as % of nominal) (Ethanol Absolute, 24 hours ambient, listed as active ingredient): 100.2 % of nominal and 97.7 % of nominal
Assay (as % of nominal) (Ethanol Absolute, Initial): 107.1 % of nominal
Assay (as % of nominal) (Ethanol Absolute, Initial, listed as active ingredient): 90.6 % of nominal
Impurity peak area, RRT 0.86^$ (PDA spectra unrelated to the active ingredient) (Ethanol absolute, 24 hour): <0.05 % of Total
Impurity peak area, RRT 0.92 (Ethanol absolute, 24 hour): <0.05 % of Total
Impurity peak area, RRT 1.04* (Ethanol absolute, 24 hour): <0.05 % of Total

From patent US20260207560A1, “PLURALITY OF GRANULES” (priority 2022, published 2026)
